Values quoted from earlier work in article PMC5377275 (ACS Omega, 2017).

Tested on: cytosolic lysates

| Compound | Effect of inhibitor on ubiquitination of KGSYGK(FAM)RRR | other results |
| --- | --- | --- |
| O=C(O)COc1ccc(Br)cc1/C=C1\SC(=S)N(Cc2cccnc2)C1=O [SKPin C1] | impaired |  |
| O=C1c2ccccc2-c2nc3nonc3nc21 [SMER3] | impaired |  |
| KGSYGK(FAM)RRR |  | Ubiquitination of p53/MDM2-based peptide in cytosolic lysates: readily ubiquitinated |
| RRRG |  | Ubiquitination of primary degron in HeLa cell lysates (lysine residue positioned at the C-terminus): rapidly ubiquitinated |
